The results in this text go back to ChEMBL document CHEMBL4402557, “Nidufexor (LMB763), a Novel FXR Modulator for the Treatment of Nonalcoholic Steatohepatitis” (J Med Chem, 2020).

The target in data set [1] is T1, Estrogen receptor (Homo sapiens, UniProt P03372).
T1 sequence (P03372 whole entry): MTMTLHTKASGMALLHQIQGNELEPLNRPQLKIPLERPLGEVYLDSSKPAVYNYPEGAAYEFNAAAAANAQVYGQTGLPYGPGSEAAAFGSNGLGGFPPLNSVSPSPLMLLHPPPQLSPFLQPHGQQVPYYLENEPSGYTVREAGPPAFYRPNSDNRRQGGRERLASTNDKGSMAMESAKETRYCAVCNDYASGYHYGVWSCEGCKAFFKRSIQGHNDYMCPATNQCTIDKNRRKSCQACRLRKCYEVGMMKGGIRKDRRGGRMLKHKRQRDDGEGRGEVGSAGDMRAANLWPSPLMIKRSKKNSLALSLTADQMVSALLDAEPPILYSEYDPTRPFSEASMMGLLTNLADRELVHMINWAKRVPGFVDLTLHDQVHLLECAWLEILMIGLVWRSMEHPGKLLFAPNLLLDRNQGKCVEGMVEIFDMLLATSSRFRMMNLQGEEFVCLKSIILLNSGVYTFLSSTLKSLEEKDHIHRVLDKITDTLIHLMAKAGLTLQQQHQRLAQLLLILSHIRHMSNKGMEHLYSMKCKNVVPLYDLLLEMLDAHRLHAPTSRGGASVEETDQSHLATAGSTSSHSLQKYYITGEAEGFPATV
Nature of the data set: Agonist activity at ERalpha (unknown origin) incubated for 2 hrs by TR-FRET assay. For orientation: In TR-FRET formats the signal depends on donor and acceptor labels being close together.

For a further data set, the target named is T2, Bile acid receptor (Homo sapiens, UniProt Q96RI1).
T2 sequence (Q96RI1 whole entry): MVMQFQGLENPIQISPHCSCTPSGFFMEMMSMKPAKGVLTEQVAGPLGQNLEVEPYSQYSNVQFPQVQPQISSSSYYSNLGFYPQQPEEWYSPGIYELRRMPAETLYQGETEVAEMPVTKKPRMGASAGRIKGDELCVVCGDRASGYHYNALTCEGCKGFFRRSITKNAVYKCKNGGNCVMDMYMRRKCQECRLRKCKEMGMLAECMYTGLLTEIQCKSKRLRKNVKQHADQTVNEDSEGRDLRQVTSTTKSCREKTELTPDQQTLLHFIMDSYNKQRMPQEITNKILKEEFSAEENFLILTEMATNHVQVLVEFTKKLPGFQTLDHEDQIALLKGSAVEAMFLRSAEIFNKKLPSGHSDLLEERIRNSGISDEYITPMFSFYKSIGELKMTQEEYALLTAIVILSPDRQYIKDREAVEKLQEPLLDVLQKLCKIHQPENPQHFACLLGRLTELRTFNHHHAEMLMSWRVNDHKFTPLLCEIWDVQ
The data set is described as follows: Agonist activity at FXR transfected in human HEK293T cells o-expressing pGL3/hBSEP/luc incubated for 24 hrs by Steady-Glo reagent based luciferase reporter gene assay. The data set is classed as cell-based. (Reporter assays use an easily measured gene product as a stand-in for the process of interest.)

Data set [2] in a line: Permeability of the compound by PAMPA. The class given is ADME. For orientation: In PAMPA a lipid-coated filter parts donor from acceptor wells.
Data set [3] in a line: AUC in Wistar rat at 10 mg/kg, po. The class given is ADME, organism-based. The following applies: in vivo.
Data set [4] can be described thus: AUC in Wistar rat at 30 mg/kg, po. The class given is ADME, organism-based. The following applies: in vivo.
Data set [5] is described as follows: Cmax in Wistar rat at 10 mg/kg, po. Also on record: dose 10 mg/kg, route oral. As to conditions: in vivo. The class given is ADME, organism-based.
A short description of data set [6]: Half life in Wistar rat at 3 mg/kg, po. The following applies: in vivo. The class given is ADME, organism-based.
Data set [7] in a line: Half life in Wistar rat at 10 mg/kg, po. The class given is ADME, organism-based. The following applies: in vivo.
Data set [8] in a line: Half life in Wistar rat at 100 mg/kg, po. The following applies: in vivo. The class given is ADME, organism-based.
Data set [9] is described as follows: Oral bioavailability in Wistar rat at 300 mg/kg. The data set is classed as ADME, organism-based. As to conditions: in vivo.
In data set [10] the target is T3, Bile acid receptor (Rattus norvegicus) (UniProt Q62735).
T3 sequence (whole entry): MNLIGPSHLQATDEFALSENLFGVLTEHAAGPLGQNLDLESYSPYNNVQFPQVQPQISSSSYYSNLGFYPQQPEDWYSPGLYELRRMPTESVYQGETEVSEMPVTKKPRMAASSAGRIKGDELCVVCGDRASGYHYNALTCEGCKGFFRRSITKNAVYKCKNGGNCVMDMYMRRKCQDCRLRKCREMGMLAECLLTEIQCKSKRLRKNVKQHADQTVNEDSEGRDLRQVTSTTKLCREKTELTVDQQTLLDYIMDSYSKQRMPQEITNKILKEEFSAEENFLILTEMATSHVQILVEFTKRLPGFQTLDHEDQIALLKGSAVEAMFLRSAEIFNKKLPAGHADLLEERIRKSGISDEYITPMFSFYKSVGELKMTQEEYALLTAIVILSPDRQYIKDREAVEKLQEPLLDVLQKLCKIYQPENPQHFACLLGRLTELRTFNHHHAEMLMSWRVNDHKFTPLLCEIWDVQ
The data set is described as follows: Agonist activity at FXR in rat primary hepatocytes assessed as increase in BSEP mRNA level incubated for 24 hrs by qRT-PCR analysis relative to DMSO. The class given is cell-based.

Data set [11] concerns the target T1, Estrogen receptor. The data set is described as follows: Agonist activity at GAL4-fused ERalpha (unknown origin) expressed in HEK293T cells incubated for 24 by BrightGlo reagent based assay. The data set is classed as cell-based.
Data set [12] relates to Rattus norvegicus. Nature of the data set: In-vivo agonist activity at FXR in orally dosed Han Wistar rat assessed as repression of CYP7a1 mRNA level in liver administered via oral gavage once daily for 14 days measured post last dose by qRT-PCR analysis. The class given is functional, organism-based.
The test system of data set [13] is Rattus norvegicus. Nature of the data set: In-vivo agonist activity at FXR in Han Wistar rat assessed as upregulation of FGF15 protein level in serum at 1.5 mg/kg administered via oral gavage once daily for 14 days measured 10 hrs post last dose relative to control. The data set is classed as functional.
For a further data set, the species on record is Mus musculus. Nature of the data set: Anti Steato-hepatitic activity in C57BL/6J mouse STAM model assessed as change in Aldh1l2 gene level in liver. The data set is classed as functional, organism-based.
A short description of data set [14]: Half life in dog at 0.5 mg/kg, iv. The data set is classed as ADME, organism-based, Canis lupus familiaris. As to conditions: in vivo.

The source made the active and inactive calls.

As usually defined, the EC50 is the concentration at which the effect is half-maximal. A higher EC50 goes with lower potency in that assay. By AUC is commonly meant the area under the concentration-time curve, a measure of exposure. As usually defined, the Cmax is the maximum level reached in the sampled fluid or tissue. The half-life is the time needed for the level to fall by half in the phase considered. Low readings indicate rapid decline, high ones slow decline. For orientation: bioavailability means the share of a dose that reaches the circulation, judged against a reference dose that is usually intravenous. Read a high bioavailability as good availability.

Regarding `Cn1nc(C(=O)N(Cc2ccccc2)Cc2ccc(C(=O)O)cc2)c2c1-c1cc(Cl)ccc1OC2` [NIDUFEXOR], the EC50 at Estrogen receptor [1] is over 30 µM; on Bile acid receptor, 0.032 µM; on Estrogen receptor [11], over 10 µM. The compound also returned a permeability in [2] of 94%. In addition, the values for the AUC in data set [3] and in data set [4] were 25.4 µM·h and 76.5 µM·h, respectively. In addition, the Cmax in data set [5] stood at 12.4 µM. In addition, the half-life in [6] was 3.9 h; in [7], 5.7 h; in data set [8] it was 5.6 h; in [14], 6.8 h. In addition, the bioavailability in data set [9] was determined as 72%. Further, the fold change (FC) in data set [10] was 24; in the data set with Rattus norvegicus [13] it was 3.5. Besides, the outcome in the data set on Rattus norvegicus [12] and in the data set listed under Mus musculus was Active.
